Measured values published in ChEMBL document CHEMBL2074035, “Identification of the hepatic efflux transporters of organic anions using double-transfected Madin-Darby canine kidney II cells expressing human organic anion-transporting polypeptide 1B1 (OATP1B1)/multidrug resistance-associated protein 2, OATP1B1/multidrug resistance 1, and OATP1B1/breast cancer …” (J Pharmacol Exp Ther, 2005).

Legend:
[1] = target: Canalicular multispecific organic anion transporter 1/Solute carrier organic anion transporter family member 1B1 (Homo sapiens, UniProt Q92887+Q9Y6L6); assay: TP_TRANSPORTER: Transepithelial Transport (basal to apical) in OATP1B1/MRP2 double transfected MDCKII cells; type: functional, cell-based; settings: dog, mdck-ii
[2] = target: T1, Broad substrate specificity ATP-binding cassette transporter ABCG2 (Homo sapiens, UniProt Q9UNQ0); assay: TP_TRANSPORTER: Transepithelial Transport (basal to apical) in OATP1B1/BCRP double transfected MDCKII cells; type: functional, cell-based; settings: dog, mdck-ii
T1 sequence (Q9UNQ0 whole entry): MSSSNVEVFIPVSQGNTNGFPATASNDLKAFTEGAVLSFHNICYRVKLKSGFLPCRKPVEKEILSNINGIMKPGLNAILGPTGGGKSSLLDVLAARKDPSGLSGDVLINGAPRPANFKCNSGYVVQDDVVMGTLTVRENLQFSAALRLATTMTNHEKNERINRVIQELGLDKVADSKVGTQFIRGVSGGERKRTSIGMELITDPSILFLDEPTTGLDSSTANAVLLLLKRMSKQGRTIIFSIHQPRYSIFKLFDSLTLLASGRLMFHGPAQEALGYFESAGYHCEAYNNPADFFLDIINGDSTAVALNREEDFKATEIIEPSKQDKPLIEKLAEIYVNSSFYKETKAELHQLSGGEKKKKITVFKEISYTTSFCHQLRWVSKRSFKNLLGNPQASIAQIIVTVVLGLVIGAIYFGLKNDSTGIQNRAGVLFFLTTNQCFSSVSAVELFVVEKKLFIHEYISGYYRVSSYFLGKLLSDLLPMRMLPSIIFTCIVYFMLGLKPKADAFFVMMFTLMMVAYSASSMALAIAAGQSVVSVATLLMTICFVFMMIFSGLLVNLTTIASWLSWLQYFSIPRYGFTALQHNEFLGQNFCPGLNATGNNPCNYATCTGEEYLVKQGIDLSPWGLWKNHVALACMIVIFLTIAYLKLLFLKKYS

Row | Structure (SMILES) | Activity [1] | Activity [2]
1 | CC[C@H](C)C(=O)O[C@H]1C[C@H](O)C=C2C=C[C@H](C)[C@H](CC[C@@H](O)C[C@@H](O)CC(=O)O)[C@H]21 [PRAVASTATIN] | substrate [(+)] | substrate [(+)]
2 | C[C@]12CC[C@@H]3c4ccc(OS(=O)(=O)O)cc4CC[C@H]3[C@@H]1CCC2=O [ESTRONE SULFURIC ACID] | substrate [(+)] | substrate [(+)]
3 | C[C@]12CC[C@@H]3c4ccc(O)cc4CC[C@H]3[C@@H]1CC[C@@H]2O[C@@H]1O[C@H](C(=O)O)[C@@H](O)[C@H](O)[C@H]1O [ESTRADIOL 17B GLUCURONIDE] | substrate [(+)] | substrate [(+)]
